{"source": "patent US20070202188A1", "about": "“Use of alkene carboxlic acid n alkylamides as flavouring agents” (priority 2003, published 2007)", "key": {"[1]": {"tested_on": "group of 6-8 testers", "experiment": "Sensorial evaluation (tasting of sugar solution by a group of testers)", "type": "in vivo", "settings": "approx. 5 ml swallowed", "description": "The substance to be tasted (see below) was dissolved in ethanol and the ethanolic solution was then diluted with 11% strength sugar solution (final concentration: c). For tasting, in each case approx. 5 ml of the sugar solution was swallowed. If the threshold value of the substance was known, a value just above the threshold value was chosen for the tasting. A group of 6-8 testers tasted the solutions."}, "[2]": {"tested_on": "oral cavity", "settings": "in vivo; cited from earlier work"}, "[3]": {"tested_on": "mouse", "settings": "mouse oral; cited from earlier work"}, "[4]": {"settings": "cited from earlier work"}, "[5]": {"tested_on": "mouth", "settings": "in vivo; cited from earlier work"}, "[6]": {"settings": "c=10 ppm in 11% strength sugar solution"}}}
{"molecule": "2E-decenoic acid N-(2-methylbutyl)amide [Example 2]", "values": [{"measurement": "sensorial profile", "setting": "[1]; [6]", "value": "slightly piquant, saliva-promoting, tingling, mild heat sensation"}]}
{"molecule": "2E-tetradecenoic acid N-isobutylamide", "values": [{"measurement": "sensorial effect described in the literature", "setting": "[2]", "value": "no piquant taste was found"}]}
{"molecule": "3E-nonenoic acid N-isobutylamide [Example 3]", "values": [{"measurement": "sensorial profile", "setting": "[1]; [6]", "value": "anaesthetizing, piquant taste builds up, impression of sweet palmond, slightly bitter"}]}
{"molecule": "CCCCC/C=C/C=C/C(=O)NCC(C)C", "note": "[2E,4E-decadienoic acid N-isobutylamide]", "values": [{"measurement": "sensorial profile", "setting": "[1]; [6]", "value": "saliva-promoting, fatty, fruity, slightly tingling, slightly piquant"}, {"measurement": "sensorial effect described in the literature", "setting": "[2]", "value": "chiefly shows an anaesthetizing effect"}]}
{"molecule": "CCCCCC/C=C/CC(=O)NCC(C)C", "note": "[Example 4, 3E-decenoic acid N-isobutylamide]", "values": [{"measurement": "sensorial profile", "setting": "[1]; [6]", "value": "tickling piquant taste, builds up slowly in the pharynx, slightly bitter"}]}
{"molecule": "COc1cc(CNC(=O)CCCC/C=C/C(C)C)ccc1O", "note": "[capsaicin, N-(4-hydroxy-3-methoxybenzyl)-8-methyl-(6E)-nonenoic acid amid]", "values": [{"measurement": "LD50", "setting": "[3]", "value": 47, "unit": "mg"}, {"measurement": "damage with frequent use and overdose", "setting": "[4]", "value": "chronic gastritis and kidney and liver damage"}]}
{"molecule": "COc1cc(CNC(=O)CCCCCCC(C)C)ccc1O", "note": "[dihydrocapsaicin]", "values": [{"measurement": "sensorial profile", "setting": "[1]; c=100 ppb in 11% strength sugar solution", "value": "action starts with a slight delay in the pharyngeal cavity, aggressive, burning piquant taste (chilli, slight evolution of heat)"}]}
{"molecule": "O=C(/C=C/C=C/c1ccc2c(c1)OCO2)N1CCCCC1", "note": "[piperine, 1-piperoylpiperidine]", "values": [{"measurement": "intrinsic taste", "setting": "[5]", "value": "intensive intrinsic taste reminiscent of pepper"}, {"measurement": "relative piquant taste compared with capsaicin", "setting": "[5]", "value": "approx. 1%"}]}
